Data reported in patent US10087465B2, “Trans-acting elements for intracellular delivery of nucleic acid sequences” (The United States of America, as Represented by the …, priority 2014, dated 2018).
Entries after “also recorded” stand apart in the source; their conditions may differ. {F1} = fluorescein label

Key:
Assay type in all cases: cell-based
[1] = tested on: HEK 293, HeLa, HeLa pLuc705, MCF7 and SK—N—SH live cells; assay: Flow cytometry (FACS) analysis of cellular uptake of fluorescently-labeled PNA or PMO oligomers in live cells
Method: (§1) Complex formation between PNA or PMO oligomers and dTtaPS or dAtaPS: Appropriate amounts of PNA or PMO oligomers were diluted in serum-free OptiMEM™ (20 μl). dTtaPS or dAtaPS was added to the oligomer solution to achieve a final concentration that is twice that of the oligomer. After 30 min incubation at 37° C., the PNA or PMO oligomer: dTtaPS or dAtaPS complexes were stored at 4° C. for 15 minutes or until used. Stock solutions (2×) of the complexes were made by adding OptiMEM™ to appropriate volumes.
Flow cytometry analysis of cellular uptake in live cells: The internalization of fluorescently-labeled PNA or PMO sequences (Table 1) in HEK 293, HeLa, MCF7 and SK—N—SH cells was assessed by flow cytometry. Cells were seeded in a 96-well plate (10^4 cells/well) and allowed to grow at 37° C. for 24 h in 10% FBS-MEM. The culture medium of each well was then replaced with fresh medium (100 μl) containing any of the fluorescently-labeled PNA or PMO sequences, the final concentration of which was 1 μM. After an incubation of 18 h at 37° C., the medium was removed from each well by suction and 0.25% Trypsin (50 μl) was added. Upon complete cell detachment, a solution (100 μl) of ice-cold 2% FBS in phosphate-buffered saline (PBS, pH 7.4) was added to each well. The cells were collected into tubes, to which was added 0.4% Trypan blue (50 μl) and 200 µM monensin (20 μl), and analyzed by fluorescence-activated cell sorting (FACS) using a BD FACScan™ flow cytometer. A total of 5000 events were counted and the results were reported as a percentage of the cells that have internalized the fluorescently-labeled oligomers.

HeLa pLuc 705 cells [2] = assay: Confocal microscopy analysis of dTtaPS-assisted internalization of PNA or PMO oligomers; settings: dTtaPS-assisted uptake; oligomer 1.0, dTtaPS 2.0 μM; 12 h at 37° C.
Method: Confocal microscopy analysis of dTtaPS-assisted internalization of PNA or PMO oligomers in HeLa pLuc 705 cells: HeLa pLuc 705 cells (5×10^4 cells/well) were seeded in 8-well chambered slides and cultured for 24 h at 37° C. in 10% FBS-MEM (200 μl). The culture medium of each well was then replaced with 20% FBS containing fresh medium (200 μl) and the fluoresceinated PNA or PMO oligomer:dTtaPS complex that was prepared as described above to provide an oligomer and dTtaPS final concentration of […] and 2.0 μM, respectively. After a 12 h incubation at 37° C., the medium was removed and a 0.4% Trypan Blue solution (200 μl) was added to quench the fluorescence stemming from extracellular fluoresceinated oligonucleotides. After a period of 5 minutes at ambient temperature, the cells were washed twice with PBS (pH 7.4, 200 μl) followed by the addition of fresh phenol red-free DMEM (200 μl) supplemented with 10% FBS. The intracellular distribution of fluorescence was determined without fixation using a Leica SP8 confocal microscope system and analysed using the Leica LASAF software. Hoechst 33342 was used, in accordance with the manufacturer's staining protocols, for the detection of nuclei. Images were acquired at a 63× magnification.

HeLa pLuc705 cells [3] = assay: Cytotoxicity study with commercial cell-counting kit (CCK-8); settings: oligomer 1.0 μM, dTtaPS 2.0 μM; 18 h; compared to medium or absence of dTtaPS
Method: Flat-bottom 96-well plates were purchased from BD-Falcon. The CCK-8 Kit for cytotoxicity studies was purchased from Dojindo Molecular Technologies.
The cytotoxicity of PNA oligomer 10:dTtaPS and PMO oligomer 21:dTtaPS complexes in HeLa pLuc 705 cells was evaluated over a period of 18 h using a commercial cell-counting kit.

HeLa pLuc705 cells [4] = assay: Luciferase splice correction assay; settings: for luciferase activity / internalization of the oligomer in the absence of PS-dT8[3+] (dTtaPS): no transfection element
Method: The efficiency of PS-dT8[3+] in the cellular uptake of polyA-tailed PNA oligomers was assessed through the luciferase splice correction assay in which the mutated intron 2 of the human β-globin gene has been inserted within the coding sequence of a luciferase reporter gene (pLuc705). The activation of a cryptic splice site in this intron leads to a defective luciferase enzyme. In the presence of a PNA oligomer complementary to the aberrant splice site, correct splicing is restored and results in an active luciferase. A concentration-dependence of splice correction activity by PS-dT8[3+]-mediated internalization of the PNA oligomer 10 in HeLa pLuc705 cells is shown in FIG. 12.
as §1
Luciferase assay protocol: HeLa pLuc 705 cells were seeded in a 96-well plate (2×10^4 cells/well) and allowed to grow at 37° C. for 18 h in 10% FBS-DMEM. The culture medium of each well was then replaced with either fresh serum-free or 20% serum-containing OptiMEM™ (50 μl) for experiments intended to be performed in serum-free or in 10% serum-containing media. A 2× solution of PNA or PMO oligomer:dTtaPS or dAtaPS complexes (50 μl) was added to the cells in order to achieve pre-determined complex concentrations, as indicated in the Figures. After a 4-hour incubation at 37° C., 20% FBS in OptiMEM™ (100 μl was added to serum-free experiments and cells were incubated for an additional 18 h at 37° C. The media was then removed by suction and the cells were mixed with a cell lysis reagent (50 μl) and agitated at ambient temperature for 10 minutes. The cell lysate (30 μl) was placed in a white 96-well plate and Bright-Glo™ reagent (20 μl) was added. Luciferase activity was measured using a microplate reader. For each well, luminescence was integrated over a period of 1 sec and recorded as relative light units (RLU). Luminescence measurements were normalized to the amount of protein present in the test sample.
Appropriate amounts of PNA/PMO oligomers were diluted in OptiMEM™ (20 μL) to achieve the concentration of 1 μM or as indicated in the Figures. PS-dT8[3+] or PS-dAs[3+] was added to the above oligomer solutions. After a 30 min incubation at 37° C., the PNA/PMO oligomer:PS-dT8[3+] or PS-dA8[3+] complexes were removed and kept at 4° C. for 15 minutes or until used. Stock solutions of the complexes were made by adding OptiMEM™ to appropriate volumes.
Luciferase Assay: Prior to performing experiments, HeLa pLuc 705 cells were seeded in a 96-well plate (2×10^4 cells/well) and allowed to grow at 37° C. for 18 h in 10% FBS DMEM. The culture medium of each well was then replaced with either fresh 50 μL serum free or 20% serum-containing OptiMEM™ for experiments intended to be performed in serum free or in 10% serum-containing media. A 2× solution of the PNA/PMO oligomer:PS-dT8[3+] or PS-dAs[3+] complexes (50 μL) was added to the cells in order to achieve a pre-determined concentration as indicated in the figures. After a 4-hour incubation at 37° C., 20% FBS in OptiMEM (100 μL) was added to serum free experiments and cells were incubated for an additional 18 h at 37° C. The media was then removed by suction and the cells were mixed with a cell lysis reagent (50 μL) and agitated at ambient temperature over a period of 10 minutes. The cell lysate (30 μL) was placed in white 96-well plate and Bright-Glow™ reagent (20 μL) was added. Luciferase activity was measured using a microplate reader. […]

HeLa pLuc 705 cells [5] = assay: Energy-dependence of the dTtaPS-assisted internalization of PNA oligomer 10; settings: dTtaPS-mediated uptake; incubation of 1 h
Method: Energy-dependence of the dTtaPS-assisted internalization of PNA oligomer 10 in HeLa pLuc 705 cells: HeLa pLuc 705 cells were seeded in a 96-well plate (2×10^4 cells/well) and allowed to grow at 37° C. for 18 h in 10% FBS-DMEM. While the cell culture was maintained at 37° C. or 4° C., a 2× solution of a PNA oligomer 10:dTtaPS complex was prepared as described above. The cell culture medium was replaced with the PNA oligomer:dTtaPS complex solution to provide an oligomer and dTtaPS final concentration of […], respectively. After an incubation of 1 h at 37° C. or 4° C., the medium was removed by suction and luciferase activity was measured as described above in the Luciferase assay protocol. Luminescence measurements were normalized to the amounts of protein present in the test samples and reported as percent luminescence remaining relative to that of the experiment performed at 37° C.

HeLa pLuc 705 cells [6] = assay: Competition assay with PS-dT8 (luciferase readout); settings: PNA oligomer 10 1.0 μM, dTtaPS 1.0 μM, PS-dT8 1.0, 2.0 or 4.0 μM
Method: Competition assay: HeLa pLuc 705 cells were seeded in a 96-well plate and grown in 10% FBS-DMEM as described above. Predetermined amounts of polyA-tailed PNA oligomer 10 and octathymidilyl DNA phosphorothioate (PS-dT8) were placed in individual microfuge tubes so that the molar ratio of PNA:PS-dT8 in each tube was 1:1, 1:2 or 1:4. OptiMEM™ (20 μl) was added to each of the three tubes, which were then placed in a heating block pre-heated to 60° C. After 2 min, the tubes were removed from the heating block, allowed to cool slowly to 20° C., and then, left standing in a cold room (4° C.) for 15 min. dTtaPS was added to the mixture of oligomers of each tube to achieve a concentration that is equimolar to that of the PNA oligomer 10. After a 30 min incubation at 37° C., the PNA/PS-dT8:dTtaPS complexes were stored at 4° C. for 15 minutes or until used. […] The cells were then incubated for an additional 30 min at 37° C., whereupon luciferase activity was measured as described above in the Luciferase assay protocol. Luminescence measurements were normalized to the amounts of protein present in the test samples and reported as percent luminescence remaining relative to that of the experiment performed in the absence of PS-dT8.

## PMO oligomer 18: commercial PMO, CCTCTTACCTCAGTTACA-AAAAAA-F1, SEQ ID NO. 12 (CCTCTTACCTCAGTTACAAAAAAA; all phosphorodiamidate morpholino (PMO), 3' {F1})
[1]; PMO oligomer 1 μM, PS-dT8[3+] 2 μM, all cell lines, FIG. 17, listed as 18
  PS-dT8[3+] (dTtaPS)-mediated delivery of fluoresceinated PMO oligomers: confirmed the dTtaPS-assisted delivery
HeLa pLuc 705 cells [2]
  intracellular distribution of fluorescence: endosomal sequestration of 18 and modest nuclear fluorescence

## PMO oligomer 21: commercial PMO, CCTCTTACCTCAGTTACA-AAAAAA, SEQ ID NO. 15 (CCTCTTACCTCAGTTACAAAAAAA; all phosphorodiamidate morpholino (PMO))
HeLa pLuc705 cells [3]
  cytotoxicity of oligomer:dTtaPS complexes: did not induce significant cytotoxicity
HeLa pLuc705 cells [4]; listed as 21
  luciferase activity / internalization of the oligomer in the absence of PS-dT8[3+] (dTtaPS): reduced to that of the negative control oligomer 22

## PNA oligomer 7: commercial PNA, F1-CCTCTTACCTCAGTTACA-AAAAAA-NH2, SEQ ID NO. 1 (CCTCTTACCTCAGTTACAAAAAAA; all peptide nucleic acid (PNA), 5' {F1}; PNA with C-terminal amide, further chemistry not fully specified)
[1]; dTtaPS-mediated uptake, FACS analysis
  mean fluorescence intensity (MFI) after internalization, relative to that of PMO oligomer 18: ~10 fold
[1]; in the presence of PS-dT8[3+], oligomer 1 μM, all cell lines under study, FIG. 11
  PS-dT8[3+] (dTtaPS)-mediated cellular internalization of fluoresceinated PNA oligomers: efficiently internalized
HeLa pLuc 705 cells [2]
  intracellular distribution of fluorescence: endosomal sequestration of 7 is predominant

## PNA oligomer 10: commercial PNA, H-CCTCTTACCTCAGTTACA-AAAAAA-NH2, SEQ ID NO. 4 (CCTCTTACCTCAGTTACAAAAAAA; all peptide nucleic acid (PNA); PNA with C-terminal amide)
HeLa pLuc 705 cells [5]
  decrease of luciferase activity production at 4° C. relative to 37° C.: at least 50%
HeLa pLuc705 cells [3]
  cytotoxicity of oligomer:dTtaPS complexes: did not induce significant cytotoxicity
HeLa pLuc705 cells [4]; PS-dA8[3+] 2.0 μM, compared with PS-dT8[3+]:10 complex, FIG. 16, listed as 10
  luciferase activity / internalization upon PS-dA8[3+] (dAtaPS)-mediated delivery of PNA oligomers: No significant level of luciferase activity was detected; also recorded: Poor luciferase activity
HeLa pLuc705 cells [4]; PS-dT8[3+] 2 μM, FIG. 12, 13, 15, listed as 10
  luciferase activity (splice correction) upon PS-dT8[3+] (dTtaPS)-assisted delivery of PNA oligomers: induced splice correction of the pre-mRNA encoding luciferase, in a dose-dependent manner
HeLa pLuc705 cells [4]
  luciferase activity / internalization of the oligomer in the absence of PS-dT8[3+] (dTtaPS): no luciferase activity was detected

## octathymidilyl DNA phosphorothioate [PS-dT8]
HeLa pLuc 705 cells [6]
  decrease of luciferase activity production relative to control without PS-dT8: ≤ 80%
